The experiment is described as follows: Analysis Method 8: ultraviolet ray transmittance on surgical tape. Particulars: wave-length of 310 nm; applied amounts differ per sample. The method, then: A measuring sample was applied on a surgical tape (TRANSPORE TAPE, manufactured by 3M Corp.), this was irradiated with a ultraviolet ray, and the amount of the transmitted light was measured by a SPF analyzer, (UV-1000S, manufactured by LABSPHERE Corp., US). The numerical value in the examples is an average of 40 values. The amount of the sample applied on a surgical tape is 2 μl/cm^2 and a certain amount when measuring SPF value and ultraviolet ray transmittance, respectively.

SMILES strings stand for the structures.

Molecule `CCCCC(CC)COC(=O)C=Cc1ccc(OC)cc1` (stereo not shown) [2-ethylhexyl p-methoxy-cinnamate, 2-ethylhexyl p-methoxycinnamate] showed a Ultraviolet ray transmittance of 2.2.

Source of the values: patent US6337089B1, “Microcapsule containing core material and method for producing the same” (Seiwa Kasei Company, Limited, priority 1998, dated 2002).
